The text below walks through data of patent US7883708B2, “Substance derived from basidiomycetes culture, method for producing it and its use” (Amino Up Chemical Co., Ltd., priority 1999, dated 2011).

≈ marks a conversion by molar mass, not a printed value.

Common to all, as to test: 50% growth suppression concentration (IC50) of tumor cells (MTT)
Holding throughout (format): cell-based

Assay [1] relates to Colon 26 mouse colorectal cancer cells. As to conditions: 48 hours, read-out: IC50 (μg/ml) Colon 26. An excerpt: (§1) 3LL mouse lung cancer cells, Colon 26 mouse colorectal cancer cells, PC3 human prostatic cancer cells, Du145 human prostatic cells, and LNCAP human prostatic cells were used and 50% suppression concentrations (IC50) of Invention Substance 1, genistein standard preparation (produced by Sigma) and basidiomycetes culture (product obtained by cultivating basidiomycetes in the absence of isoflavones-containing material under the same conditions as in Example 1) on these cells were examined.
(§2) That is, Invention Substance 1, genistein standard preparation or basidiomycetes culture was suspended in distilled water and were autoclaved and added to the cells in a continuously varied concentration of from 1,000 μg/ml to 0.1 μg/ml. The tumor cell suspension was adjusted to 1-2×10^5 cells/well with DMEM medium containing 10% FBS and cultivated at 37° C. for 48 hours. Then, after addition of Invention Substance 1 or genistein standard preparation, the cells were further cultivated for additional 48 hours, followed by examining cell growth by the MTT method using a microplate reader. Lower numerical values indicate that 50% suppression of the growth of cultured cancer cells is possible at lower concentrations.

The test system of assay [2] is PC3 human prostatic cancer cells. As to conditions: 48 hours, read-out: IC50 (μg/ml) PC3.
Source text: as §1, §2

Assay [3] has as its system 3LL mouse lung cancer cells. As to conditions: 48 hours, read-out: IC50 (μg/ml) 3LL.
Source text: as §1, §2

The subject of assay [4] is Du145 human prostatic cells. The following applies: DU-145, 48 hours, read-out: IC50 (μg/ml) Du145.
Source text: as §1, §2

Assay [5] relates to LNCAP human prostatic cells. The following applies: 48 hours, read-out: IC50 (μg/ml) LNCaP.
Source text: as §1, §2

As to `O=c1c(-c2ccc(O)cc2)coc2cc(O)cc(O)c12` [Genistein standard preparation, genistein], the IC50 in assay [1] was determined as 51.2 µg/mL (≈ 190 µM); in assay [2], 35.8 µg/mL (≈ 132 µM); in assay [3] it was 31.8 µg/mL (≈ 118 µM); in assay [4] it was 55.3 µg/mL (≈ 205 µM); in assay [5], 69.4 µg/mL (≈ 257 µM).
